The data set concerns CCRIS mutagenicity, Ames/micronucleus/aberration tests. The data set is described as follows: CCRIS mutagenicity studies.

Active and inactive are the calls of the source. The rule behind the calls is not given here.

As to `CN(C)c1ccc(N)cc1`, the mutagenic call is “active; positive (structural changes)” (End Point: IN VITRO CHROMOSOMAL ABERRATIONS, Test System: CHINESE HAMSTER LUNG CELLS (CHL), Metabolic Activation: NONE); “inactive; negative; authors describe results at highest dose as equivocal” (End Point: IN VITRO CHROMOSOMAL ABERRATIONS, Test System: CHINESE HAMSTER LUNG CELLS (CHL), Metabolic Activation: RAT, LIVER, S-9, KC-400); “inactive; positive at highest dose; authors describe overall results as negative” (End Point: IN VITRO CHROMOSOMAL ABERRATIONS, Test System: CHINESE HAMSTER OVARY CELLS (CHO), Metabolic Activation: NONE); “inactive; negative” (End Point: IN VITRO CHROMOSOMAL ABERRATIONS, Test System: CHINESE HAMSTER OVARY CELLS (CHO), Metabolic Activation: RAT, LIVER, S-9, AROCLOR 1254); “active; positive” (Test System: AMES SALMONELLA TYPHIMURIUM, Strain/Indicator: TA98, Metabolic Activation: HAMSTER, LIVER, S-9, AROCLOR 1254 (30%), Method: PREINCUBATION); “inactive; negative” (Test System: AMES SALMONELLA TYPHIMURIUM, Strain/Indicator: TA98, Metabolic Activation: NONE, Method: PREINCUBATION). The mutagenic call (Test System: AMES SALMONELLA TYPHIMURIUM, Strain/Indicator: TA98, Metabolic Activation: RAT, LIVER, S-9, AROCLOR 1254 (30%), Method: PREINCUBATION) is “active; positive”; the mutagenic call (Test System: AMES SALMONELLA TYPHIMURIUM, Strain/Indicator: TA100, Metabolic Activation: HAMSTER, LIVER, S-9, AROCLOR 1254 (30%), Method: PREINCUBATION) was “inactive; negative”; the mutagenic call (Test System: AMES SALMONELLA TYPHIMURIUM, Strain/Indicator: TA100, Metabolic Activation: NONE, Method: PREINCUBATION) is “inactive; negative”; the mutagenic call (Test System: AMES SALMONELLA TYPHIMURIUM, Strain/Indicator: TA100, Metabolic Activation: RAT, LIVER, S-9, AROCLOR 1254 (30%), Method: PREINCUBATION) was “inactive; negative”; the mutagenic call (Test System: Ames Salmonella typhimurium, Strain/Indicator: TA102, Metabolic Activation: None, Method: Preincubation) is “inactive; negative”; the mutagenic call (Test System: Ames Salmonella typhimurium, Strain/Indicator: TA102, Metabolic Activation: Rat, Liver, S9, Aroclor 1254, Method: Preincubation) was “active; positive”. Also, the mutagenic call was “inactive; negative” (Test System: Ames Salmonella typhimurium, Strain/Indicator: TA104, Metabolic Activation: None, Method: Preincubation) and “active; positive” (Test System: Ames Salmonella typhimurium, Strain/Indicator: TA104, Metabolic Activation: Rat, Liver, S9, Aroclor 1254, Method: Preincubation).
As for `Fc1cccc2cc3c(cc12)-c1cccc2cccc-3c12`, the mutagenic call (Test System: AMES SALMONELLA TYPHIMURIUM, Strain/Indicator: TA100, Metabolic Activation: RAT, LIVER, S-9, AROCLOR 1254, Method: STANDARD PLATE) is “active; positive”.
For the compound `CC(=O)Nc1cccc2c1-c1ccccc1C2`, the mutagenic call was “inactive; negative” (Test System: AMES SALMONELLA TYPHIMURIUM, Strain/Indicator: TA98, Metabolic Activation: HUMAN, RED BLOOD CELL, CYTOSOL, Method: PREINCUBATION); “inactive; negative” (Test System: AMES SALMONELLA TYPHIMURIUM, Strain/Indicator: TA1538, Metabolic Activation: RAT, LIVER, CYTOSOL, 4-ACETYLAMINOFLUORENE, Method: STANDARD PLATE); “active; positive” (Test System: AMES SALMONELLA TYPHIMURIUM, Strain/Indicator: TA1538, Metabolic Activation: RAT, LIVER, CYTOSOL, AROCLOR 1254, Method: STANDARD PLATE); “inactive; negative” (Test System: AMES SALMONELLA TYPHIMURIUM, Strain/Indicator: TA1538, Metabolic Activation: RAT, LIVER, CYTOSOL, Method: STANDARD PLATE); “active; positive” (Test System: AMES SALMONELLA TYPHIMURIUM, Strain/Indicator: TA1538, Metabolic Activation: RAT, LIVER, MICROSOMES, 4-ACETYLAMINOFLUORENE, Method: STANDARD PLATE); “active; positive” (Test System: AMES SALMONELLA TYPHIMURIUM, Strain/Indicator: TA1538, Metabolic Activation: RAT, LIVER, MICROSOMES, AROCLOR 1254, Method: STANDARD PLATE). In addition, the mutagenic call (Test System: AMES SALMONELLA TYPHIMURIUM, Strain/Indicator: TA1538, Metabolic Activation: RAT, LIVER, MICROSOMES, Method: STANDARD PLATE) is “inactive; negative”; the mutagenic call (Test System: AMES SALMONELLA TYPHIMURIUM, Strain/Indicator: TA1538, Metabolic Activation: RAT, LIVER, S-9, PHENOBARBITAL, Method: STANDARD PLATE) is “active; positive”; the mutagenic call (Test System: E. COLI, Strain/Indicator: WP2 UVRA, Metabolic Activation: HAMSTER, LIVER, S-9, AROCLOR 1254, Method: STANDARD PLATE) is “inactive; negative”; the mutagenic call (Test System: E. COLI, Strain/Indicator: WP2 UVRA, Metabolic Activation: HAMSTER, LIVER, S-9, Method: STANDARD PLATE) is “inactive; negative”; the mutagenic call (Test System: E. COLI, Strain/Indicator: WP2 UVRA, Metabolic Activation: MOUSE, LIVER, S-9, AROCLOR 1254, Method: STANDARD PLATE) is “inactive; negative”; the mutagenic call (Test System: E. COLI, Strain/Indicator: WP2 UVRA, Metabolic Activation: MOUSE, LIVER, S-9, Method: STANDARD PLATE) was “inactive; negative”. Further, the mutagenic call (Test System: E. COLI, Strain/Indicator: WP2 UVRA, Metabolic Activation: NONE, Method: STANDARD PLATE) was “inactive; negative”; the mutagenic call (Test System: E. COLI, Strain/Indicator: WP2 UVRA, Metabolic Activation: RAT, LIVER, S-9, AROCLOR 1254, Method: STANDARD PLATE) was “inactive; negative”; the mutagenic call (Test System: E. COLI, Strain/Indicator: WP2 UVRA, Metabolic Activation: RAT, LIVER, S-9, Method: STANDARD PLATE) is “inactive; negative”; the mutagenic call (Test System: MOUSE LYMPHOMA, Strain/Indicator: L5178Y (TK+/TK-), Metabolic Activation: NONE, Method: SUSPENSION/PLATE) is “inactive; negative”; the mutagenic call (Test System: UDS, Strain/Indicator: HEPG2/THYMIDINE INCORPORATION, Metabolic Activation: NONE, Method: AUTORADIOGRAPHY) is “inactive; negative”.

For the origin of these results see PubChem BioAssay AID1259407 (Chemical Carcinogenesis Research Information System (CCRIS), 2018).
